The target in the test is T1, GPR84 (Homo sapiens, UniProt Q9NQS5).
T1 construct: expressed in transfected cells; membranes used
T1 sequence (Q9NQS5 whole entry): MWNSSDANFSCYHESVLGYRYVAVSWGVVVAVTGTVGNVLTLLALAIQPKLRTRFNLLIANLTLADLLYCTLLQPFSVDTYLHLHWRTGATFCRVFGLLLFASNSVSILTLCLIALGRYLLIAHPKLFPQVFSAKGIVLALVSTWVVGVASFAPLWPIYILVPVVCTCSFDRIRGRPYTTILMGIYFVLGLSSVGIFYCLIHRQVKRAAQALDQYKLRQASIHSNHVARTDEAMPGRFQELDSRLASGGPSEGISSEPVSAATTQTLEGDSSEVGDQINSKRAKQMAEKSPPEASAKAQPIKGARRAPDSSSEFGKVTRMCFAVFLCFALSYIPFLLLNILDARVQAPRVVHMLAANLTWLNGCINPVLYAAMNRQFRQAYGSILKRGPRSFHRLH
Nature of the test: GTPγS binding assay (GPR84). Format: biochemical. The note with it: membranes from stable cell line over expressing GPR84; 3,3′ di indolylmethane at EC80. The procedure:
1.1. Cell Based Assay: GTp-γS Binding Assay.
The following assay can be used for determination of GPR84 activation.
The assay is performed in a 96 well plate where the following reagents are added. […] In a last step, 30 μL of a mixture consisting of membranes-GTPγS-SpA beads is added [mixture consists of 20 μg/well membranes derived from stable cell line over expressing GPR84 (membranes are pre-incubated with 0.1 μM GDP for 15 min at 4° C.), 0.1 nM [^35S]GTPγS (Perkin Elmer, NEG030) and 0.5 mg/well PVT-WGA SpA beads (Perkin Elmer, RPNQ0001)]. All components are diluted in assay buffer containing 20 mM HEPES pH 7.4; 5 mM MgCl2; 250 mM NaCl; 0.05% BSA; 75 ug/mL saponin. Reactions are incubated for 90 min at room temperature followed by centrifugation at 2000 rpm during 15 min. Plates are read on a Topcount reader (Perkin Elmer) immediately after centrifugation (readout time, 1 min/well).
The term IC50 denotes the concentration that gives 50% inhibition. A lower IC50 goes with higher potency. `Cc1ccc(-c2ccc3c(c2)CCn2c-3cc(OCC3COCCO3)nc2=O)o1` (centres unmarked) [Compound 97, 2-([1,4]dioxan-2-ylmethoxy)-9-(5-methyl-furan-2-yl)-6,7-dihydro-pyrimido[6,1-a]isoquinolin-4-one]: the IC50 is 101 to 500 nM.
For `NC(=O)c1cc(-c2ccc3c(c2)CCn2c-3cc(OCC3COCCO3)nc2=O)ccc1F` (centres unmarked) [Compound 28, 5-[2-([1,4]dioxan-2-ylmethoxy)-4-oxo-6,7-dihydro-4H-pyrimido[6,1-a]isoquinolin-9-yl]-2-fluoro-benzamide], the IC50 lay within 501 to 1000 nM.
Under `O=c1nc(OCC2COCCO2)cc2n1CCc1cc(C#CCNCc3cccnc3)ccc1-2` (centres unmarked) [Compound 120, 2-([1,4]dioxan-2-ylmethoxy)-9-{3-[(pyridin-3-ylmethyl)-amino]-prop-1-ynyl}-6,7-dihydro-pyrimido[6,1-a]isoquinolin-4-one] stands 101 to 500 nM; under `O=c1nc(OCC2COCCO2)cc2n1CCc1cc(C#Cc3ccncc3)ccc1-2` (centres unmarked) [Compound 53, 2-([1,4]dioxan-2-ylmethoxy)-9-pyridin-4-ylethynyl-6,7-dihydro-pyrimido[6,1-a]isoquinolin-4-one], 101 to 500 nM.
`CC(C)OCCOc1ccc2c(c1)CCn1c-2cc(OC[C@H]2COCCO2)nc1=O` [Compound 173, 2-((R)-1-[1,4]Dioxan-2-ylmethoxy)-9-(2-isopropoxy-ethoxy)-6,7-dihydro-pyrimido[6,1-a]isoquinolin-4-one] came in with an IC50 of 501 to 1000 nM.
For the compound `COc1ccc(-c2ccc3c(c2)CCn2c-3cc(OCC3COCCO3)nc2=O)c(OC)n1` (centres unmarked) [Compound 70, 9-(2,6-dimethoxy-pyridin-3-yl)-2-([1,4]dioxan-2-ylmethoxy)-6,7-dihydro-pyrimido[6,1-a]isoquinolin-4-one], the IC50 lay in the range of 0.01 to 100 nM.
`O=c1nc(OC[C@@H]2COCCO2)cc2n1CCc1cc(NC3CCCCC3)ccc1-2` [Compound 145, 9-cyclohexylamino-2-((S)-1-[1,4]dioxan-2-ylmethoxy)-6,7-dihydro-pyrimido[6,1-a]isoquinolin-4-one] gave an IC50 of 101 to 500 nM.
Then `O=c1nc(OCC2COCCO2)cc2n1CCc1cc(C#CC3CCCC3)ccc1-2` (centres unmarked) [Compound 81, 9-cyclopentylethynyl-2-([1,4]dioxan-2-ylmethoxy)-6,7-dihydro-pyrimido[6,1-a]isoquinolin-4-one], with 0.01 to 100 nM; and `NC(=O)c1cc(F)cc(-c2ccc3c(c2)CCn2c-3cc(OCC3COCCO3)nc2=O)c1` (centres unmarked) [Compound 51, 3-[2-([1,4]dioxan-2-ylmethoxy)-4-oxo-6,7-dihydro-4H-pyrimido[6,1-a]isoquinolin-9-yl]-5-fluoro-benzamide], with 101 to 500 nM.
For the compound `CC1(COCc2ccc3c(c2)CCn2c-3cc(OC[C@@H]3COCCO3)nc2=O)COC1` [Compound 125, 2-((S)-1-[1,4]dioxan-2-ylmethoxy)-9-(3-methyl-oxetan-3-ylmethoxymethyl)-6,7-dihydro-pyrimido[6,1-a]isoquinolin-4-one], the IC50 fell in the range of 501 to 1000 nM.
Then `O=c1nc(OC[C@H]2COCCO2)cc2n1CCc1cc(COC3CCOCC3)ccc1-2` [Compound 119, 2-((R)-1-[1,4]dioxan-2-ylmethoxy)-9-(tetrahydro-pyran-4-yloxymethyl)-6,7-dihydro-pyrimido[6,1-a]isoquinolin-4-one], with 101 to 500 nM.
As for `CC(C)(C)C(O)CCc1ccc2c(c1)CCn1c-2cc(OC[C@@H]2COCCO2)nc1=O` (stereo partly drawn) [Compound 146, 2-((S)-1-[1,4]dioxan-2-ylmethoxy)-9-(3-hydroxy-4,4-dimethyl-pentyl)-6,7-dihydro-pyrimido[6,1-a]isoquinolin-4-one], the IC50 was 0.01 to 100 nM.
Then `O=c1nc(OC[C@@H]2COCCO2)cc2n1CCc1cc(NCC3CCCCC3)ccc1-2` [Compound 153, 9-(cyclohexylmethyl-amino)-2-((S)-1-[1,4]dioxan-2-ylmethoxy)-6,7-dihydro-pyrimido[6,1-a]isoquinolin-4-one], with 101 to 500 nM.
Under `O=c1nc(OCC2COCCO2)cc2n1CCc1cc(-c3ccncc3)ccc1-2` (centres unmarked) [Compound 3, 2-([1,4]dioxan-2-ylmethoxy)-9-pyridin-4-yl-6,7-dihydro-pyrimido[6,1-a]isoquinolin-4-one] stands 501 to 1000 nM.
Then `O=c1nc(OC[C@H]2COCCO2)cc2n1CCc1cc(C#CC3(O)CCOCC3)ccc1-2` [Compound 167, 2-((R)-1-[1,4]Dioxan-2-ylmethoxy)-9-(4-hydroxy-tetrahydro-pyran-4-ylethynyl)-6,7-dihydro-pyrimido[6,1-a]isoquinolin-4-one], with 501 to 1000 nM.
As to `Cc1cc(COc2ccc3c(c2)CCn2c-3cc(OCC3COCCO3)nc2=O)on1` (centres unmarked) [Compound 54, 2-([1,4]dioxan-2-ylmethoxy)-9-(3-methyl-isoxazol-5-ylmethoxy)-6,7-dihydro-pyrimido[6,1-a]isoquinolin-4-one], the concentration for half-maximal inhibition (IC50) was 101 to 500 nM.
Then `O=c1nc(OCC2COCCO2)cc2n1CCc1cc(C#CC(O)c3cccnc3)ccc1-2` (centres unmarked) [Compound 108, 2-([1,4]dioxan-2-ylmethoxy)-9-(3-hydroxy-3-pyridin-3-yl-prop-1-ynyl)-6,7-dihydro-pyrimido[6,1-a]isoquinolin-4-one], with 0.01 to 100 nM; and `CCCCC(CC)CNc1ccc2c(c1)CCn1c-2cc(OC[C@@H]2COCCO2)nc1=O` (stereo partly drawn) [Compound 128, 2-((S)-1-[1,4]dioxan-2-ylmethoxy)-9-(2-ethyl-hexylamino)-6,7-dihydro-pyrimido[6,1-a]isoquinolin-4-one], with 101 to 500 nM; and `CCC(O)CCc1ccc2c(c1)CCn1c-2cc(OC[C@@H]2COCCO2)nc1=O` (stereo partly drawn) [Compound 157, 2-((S)-1-[1,4]dioxan-2-ylmethoxy)-9-(3-hydroxy-pentyl)-6,7-dihydro-pyrimido[6,1-a]isoquinolin-4-one], with 101 to 500 nM.
With `O=c1nc(OC[C@@H]2COCCO2)cc2n1CCc1cc(COCC3CC3)ccc1-2` [Compound 138, 9-cyclopropylmethoxymethyl-2-((S)-1-[1,4]dioxan-2-ylmethoxy)-6,7-dihydro-pyrimido[6,1-a]isoquinolin-4-one], the half-inhibitory concentration (IC50) was in the range of 0.01 to 100 nM.
Under `O=c1nc(OCC2COCCO2)cc2n1CCc1cc(C3=CCOCC3)ccc1-2` (centres unmarked) [Compound 58, 9-(3,6-dihydro-2H-pyran-4-yl)-2-([1,4]dioxan-2-ylmethoxy)-6,7-dihydro-pyrimido[6,1-a]isoquinolin-4-one] stands 101 to 500 nM; under `O=c1nc(OCC2COCCO2)cc2n1CCc1cc(C#CCCO)ccc1-2` (centres unmarked) [Compound 45, 2-([1,4]dioxan-2-ylmethoxy)-9-(4-hydroxy-but-1-ynyl)-6,7-dihydro-pyrimido[6,1-a]isoquinolin-4-one], 501 to 1000 nM; under `O=c1nc(OC[C@@H]2COCCO2)cc2n1CCc1cc(OCC3CC3)ccc1-2` [Compound 131, 9-cyclopropylmethoxy-2-((S)-1-[1,4]dioxan-2-ylmethoxy)-6,7-dihydro-pyrimido[6,1-a]isoquinolin-4-one], 0.01 to 100 nM.
`O=c1nc(OC[C@@H]2COCCO2)cc2n1CCc1cc(COC3CCCCC3)ccc1-2` [Compound 137, 9-cyclohexyloxymethyl-2-((S)-1-[1,4]dioxan-2-ylmethoxy)-6,7-dihydro-pyrimido[6,1-a]isoquinolin-4-one] showed an IC50 of 0.01 to 100 nM.
In turn, `CCC(O)(C#Cc1ccc2c(c1)CCn1c-2cc(OCC2COCCO2)nc1=O)CC` (centres unmarked) [Compound 91, 2-([1,4]dioxan-2-ylmethoxy)-9-(3-ethyl-3-hydroxy-pent-1-ynyl)-6,7-dihydro-pyrimido[6,1-a]isoquinolin-4-one] displayed an IC50 of 101 to 500 nM.
In turn, `CC(C)(C)c1cnc(COc2ccc3c(c2)CCn2c-3cc(OCC3COCCO3)nc2=O)o1` (centres unmarked) [Compound 76, 9-(5-tert-butyl-oxazol-2-ylmethoxy)-2-([1,4]dioxan-2-ylmethoxy)-6,7-dihydro-pyrimido[6,1-a]isoquinolin-4-one] returned an IC50 of 0.01 to 100 nM.
Then `O=c1nc(OC[C@@H]2COCCO2)cc2n1CCc1cc(CCCCO)ccc1-2` [Compound 151, 2-((S)-1-[1,4]dioxan-2-ylmethoxy)-9-(4-hydroxy-butyl)-6,7-dihydro-pyrimido[6,1-a]isoquinolin-4-one], with 101 to 500 nM.
Compound `CCCn1cc(-c2ccc3c(c2)CCn2c-3cc(OCC3COCCO3)nc2=O)cn1` (centres unmarked) [Compound 101, 2-([1,4]dioxan-2-ylmethoxy)-9-(1-propyl-1H-pyrazol-4-yl)-6,7-dihydro-pyrimido[6,1-a]isoquinolin-4-one] had an IC50 of 101 to 500 nM.
In the case of `CCCCC#Cc1ccc2c(c1)CCn1c-2cc(OCC2COCCO2)nc1=O` (centres unmarked) [Compound 84, 2-([1,4]dioxan-2-ylmethoxy)-9-hex-1-ynyl-6,7-dihydro-pyrimido[6,1-a]isoquinolin-4-one], the IC50 lay within 0.01 to 100 nM.
Then `CC(C)CCn1cc(-c2ccc3c(c2)CCn2c-3cc(OCC3COCCO3)nc2=O)cn1` (centres unmarked) [Compound 96, 2-([1,4]dioxan-2-ylmethoxy)-9-[1-(3-methyl-butyl)-1H-pyrazol-4-yl]-6,7-dihydro-pyrimido[6,1-a]isoquinolin-4-one], with 101 to 500 nM.
`COC(CCc1ccc2c(c1)CCn1c-2cc(OC[C@@H]2COCCO2)nc1=O)C(C)C` (stereo partly drawn) [Compound 142, 2-((S)-1-[1,4]dioxan-2-ylmethoxy)-9-(3-methoxy-4-methyl-pentyl)-6,7-dihydro-pyrimido[6,1-a]isoquinolin-4-one] had a 50% inhibitory concentration (IC50) of 0.01 to 100 nM.
The compound `CCc1nc(COc2ccc3c(c2)CCn2c-3cc(OCC3COCCO3)nc2=O)no1` (centres unmarked) [Compound 78, 2-([1,4]dioxan-2-ylmethoxy)-9-(5-ethyl-[1,2,4]oxadiazol-3-ylmethoxy)-6,7-dihydro-pyrimido[6,1-a]isoquinolin-4-one] displayed an IC50 of 0.01 to 100 nM.

The record behind these values is US10047083B2, “Dihydropyrimidinoisoquinolinones and pharmaceutical compositions thereof for the treatment of inflammatory disorders” (GALAPAGOS NV, priority 2011, dated 2018).
